Data reported in patent EP0565593B1, “REDUCING PESTICIDAL INTERACTIONS IN CROPS” (priority 1990, dated 1992).

Key:
[1] = system: Corn; settings: malathion + Herbicides 1, 21, 18; Example 54
[2] = system: Corn; settings: COUNTER with BEACON, PURSUIT (POE) or XRD-498 (PPI); Tables 29-37
[3] = system: Corn; experiment: Greenhouse test Procedure VII: biocide and antidote in furrow, herbicide POE (Examples 39-42, 48-50, 56-58; Tables 38-41, 47-49, 55-57); format: in vivo
Summary of the method: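 Corn seed was planted in greenhouse pots, with COUNTER 15G insecticide plus antidote granules applied in-furrow (e.g. 1.1 + 0.37 mg a.i./cm, or 227 g/305 m with acetone-applied safeners). About five days later, herbicides in water with 0.25% v/v X-77 were track-sprayed post-emergence at 187 L/ha. Plant response was scored eight days afterward, with two to four replicates.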

Structure (SMILES): O=C(OCc1ccccc1)c1sc(Cl)nc1C(F)(F)F [Antidote No. 7, 5-Thiazolecarboxylic acid, 2-chloro-4-(trifluoromethyl)-, (phenylmethyl) ester]
- safening [1]: moderate to high degrees of safening
- antidote activity [2]: slightly more active than other thiazoles tested
- corn injury ([3]; COUNTER 15G + BEACON/co-herbicide combinations, Example 56): reduced corn injury
- corn injury ([3]; in-furrow antidote, COUNTER 15G + sulfonamide herbicides, Table 41): significantly reduced
